Biological target: T1, Tyrosine-protein phosphatase non-receptor type 1 (Homo sapiens, UniProt P18031)
T1 sequence (P18031 whole entry): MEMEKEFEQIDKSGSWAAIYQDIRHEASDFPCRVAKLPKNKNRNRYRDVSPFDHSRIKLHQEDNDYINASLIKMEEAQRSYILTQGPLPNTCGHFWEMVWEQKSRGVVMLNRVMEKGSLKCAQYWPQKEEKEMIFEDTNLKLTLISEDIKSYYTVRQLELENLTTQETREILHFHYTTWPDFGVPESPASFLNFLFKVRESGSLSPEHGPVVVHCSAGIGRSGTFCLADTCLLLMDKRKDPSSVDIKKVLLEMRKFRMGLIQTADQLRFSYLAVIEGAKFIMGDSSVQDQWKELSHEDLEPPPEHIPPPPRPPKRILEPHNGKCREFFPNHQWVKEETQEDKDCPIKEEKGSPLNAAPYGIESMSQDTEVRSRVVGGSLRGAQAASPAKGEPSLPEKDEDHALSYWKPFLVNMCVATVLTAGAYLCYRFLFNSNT
Experiment: Inhibition of human recombinant PTP1B

SMILES	IC50 [µM]
CC(=O)C1=C(O)C=C2Oc3c(C(C)=O)c(O)c(C)c(O)c3[C@@]2(C)C1=O [(+)-USNIC ACID]	16.4
COC(=O)CC[C@H](/N=C(\C)C1=C(O)C=C2Oc3c(C(C)=O)c(O)c(C)c(O)c3[C@@]2(C)C1=O)C(=O)O [USIMINE A]	15
CC(=O)c1c(O)c(C)c(O)c2c1OC1=CC(O)=C(/C(C)=N/[C@@H](CCC(=O)O)C(=O)O)C(=O)[C@@]12C [USIMINE B]	27.7
CC(=O)c1c(O)c(C)c(O)c2c1OC1=CC(O)=C(/C(C)=N\[C@@H](CCC(=O)O)C(=O)O)C(=O)[C@@]12C [USIMINE C]	23.2
